According to ChEMBL document CHEMBL1201862, “PubChem BioAssay data set” (2004):
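Each compound was tested at five concentrations against cells in 96-well plates for 48 hours. Here, GI50 denotes the concentration required for 50% inhibition of growth.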 Activity calls are given as the source filed them. Rule as the data show it: active = GI50 up to about 1.1 µM and inactive = higher.

Key:
Experiment in all cases: NCI anticancer screen, dose series, 48 h
A549 = test system: A549
CCRF-CEM = test system: CCRF-CEM
Hs-578T = test system: Hs-578T
IGROV-1 = test system: IGROV-1
K562 = test system: K562
KM12 = test system: KM12
M14 = test system: M14
Malme-3M = test system: Malme-3M
NCI-H522 = test system: NCI-H522
NCI/ADR-RES = test system: NCI/ADR-RES
OVCAR-8 = test system: OVCAR-8
PC-3 = test system: PC-3
RXF 393 = test system: RXF 393
SF-268 = test system: SF-268
SK-MEL-28 = test system: SK-MEL-28
SN12C = test system: SN12C
SNB-19 = test system: SNB-19
U-251 = test system: U-251
HCC 2998 = test system: HCC 2998
UO-31 = test system: UO-31

| SMILES | GI50 (A549) | GI50 (CCRF-CEM) | GI50 (Hs-578T) | GI50 (IGROV-1) | GI50 (K562) | GI50 (KM12) | GI50 (M14) | GI50 (Malme-3M) | GI50 (NCI-H522) | GI50 (NCI/ADR-RES) | GI50 (OVCAR-8) | GI50 (PC-3) | GI50 (RXF 393) | GI50 (SF-268) | GI50 (SK-MEL-28) | GI50 (SN12C) | GI50 (SNB-19) | GI50 (U-251) | GI50 (HCC 2998) | GI50 (UO-31) |
| --- | --- | --- | --- | --- | --- | --- | --- | --- | --- | --- | --- | --- | --- | --- | --- | --- | --- | --- | --- | --- |
| NCc1nnn(Cc2ccccc2)c1N | > 100 µM (inactive) | > 100 µM (inactive) | > 100 µM (inactive) | > 100 µM (inactive) | > 100 µM (inactive) | > 100 µM (inactive) | > 100 µM (inactive) | > 100 µM (inactive) | > 100 µM (inactive) | > 100 µM (inactive) | > 100 µM (inactive) | > 100 µM (inactive) | > 100 µM (inactive) | > 100 µM (inactive) | > 100 µM (inactive) | > 100 µM (inactive) | > 100 µM (inactive) | > 100 µM (inactive) | – | – |
| O=C1OC(c2ccccc2)=N/C1=C\c1ccc(F)cc1 | > 100 µM (inactive) | 35.8 µM (inactive) | > 100 µM (inactive) | 71.3 µM (inactive) | > 100 µM (inactive) | > 100 µM (inactive) | > 100 µM (inactive) | – | 40.5 µM (inactive) | 46.6 µM (inactive) | 47 µM (inactive) | > 100 µM (inactive) | > 100 µM (inactive) | 66.8 µM (inactive) | > 100 µM (inactive) | > 100 µM (inactive) | > 100 µM (inactive) | 89.7 µM (inactive) | > 100 µM (inactive) | > 100 µM (inactive) |
| CC(=O)N1CC(C)(C)c2c(C)c(O)c(C)c(C)c21 | > 100 µM (inactive) | > 100 µM (inactive) | > 100 µM (inactive) | > 100 µM (inactive) | > 100 µM (inactive) | > 100 µM (inactive) | > 100 µM (inactive) | – | > 100 µM (inactive) | > 100 µM (inactive) | > 100 µM (inactive) | > 100 µM (inactive) | > 100 µM (inactive) | > 100 µM (inactive) | > 100 µM (inactive) | > 100 µM (inactive) | > 100 µM (inactive) | > 100 µM (inactive) | > 100 µM (inactive) | > 100 µM (inactive) |
| CC(CO)CCNc1ncnc2c1ncn2CCC(=O)O (stereo unspecified) | > 100 µM (inactive) | > 100 µM (inactive) | > 100 µM (inactive) | > 100 µM (inactive) | > 100 µM (inactive) | > 100 µM (inactive) | > 100 µM (inactive) | > 100 µM (inactive) | > 100 µM (inactive) | > 100 µM (inactive) | > 100 µM (inactive) | > 100 µM (inactive) | > 100 µM (inactive) | > 100 µM (inactive) | > 100 µM (inactive) | > 100 µM (inactive) | > 100 µM (inactive) | – | – | > 100 µM (inactive) |
| COc1cc2c[n+](C)c3c(c2cc1OC)Cc1cc2c(cc1-3)OCO2 | > 100 µM (inactive) | 71.4 µM (inactive) | > 100 µM (inactive) | > 100 µM (inactive) | > 100 µM (inactive) | > 100 µM (inactive) | > 100 µM (inactive) | > 100 µM (inactive) | 52.4 µM (inactive) | > 100 µM (inactive) | > 100 µM (inactive) | > 100 µM (inactive) | – | > 100 µM (inactive) | > 100 µM (inactive) | > 100 µM (inactive) | > 100 µM (inactive) | > 100 µM (inactive) | – | > 100 µM (inactive) |
| COC1=CC(=O)c2c(c(-c3nc(C)cs3)cn2C)C1=O | 3.32 µM (inactive) | 4.5 µM (inactive) | 2.21 µM (inactive) | 4.29 µM (inactive) | 2.62 µM (inactive) | 3.95 µM (inactive) | 2.13 µM (inactive) | – | 1.06 µM (active) | 4 µM (inactive) | 4.56 µM (inactive) | 5.96 µM (inactive) | 20.4 µM (inactive) | 6.44 µM (inactive) | 3.72 µM (inactive) | 5.79 µM (inactive) | 4.23 µM (inactive) | 4.67 µM (inactive) | 4.28 µM (inactive) | 4.53 µM (inactive) |
